Among the data in ChEMBL document CHEMBL4699530, “Isolation, Structural Elucidation, and Anti-HIV Activity of Daphnane Diterpenoids from Daphne odora” (J Nat Prod, 2020) are EC50 and IC50 values, retold here.

For experiment [1], the system named is Human immunodeficiency virus. Put plainly: Antiviral activity against HIV NL4-3 infected in human MT4 cells assessed as suppression of viral replication by measuring reduction in p24 level measured after 4 days by ELISA method. Conditions: Human immunodeficiency virus 1, NL4-3, MT4, 96 h. Format: functional, organism-based. A general note: ELISA stands for enzyme-linked immunosorbent assay.

For a further experiment, the system named is MT4. Put plainly: Cytotoxicity against human MT4 cells assessed as reduction in cell viability incubated for 4 days by CellTiter-Glo assay. Format: cell-based. As to conditions: MT4, 96 h.

Structures are written as SMILES. Where only a bound is given, the exact number is not on record here.

One may read the EC50 as the concentration needed to bring the measured effect to its halfway point. A word on the IC50: it is the midpoint of a concentration-inhibition curve.

In the case of `C=C(C)[C@]1(O)C[C@@H](C)[C@@]2(O)[C@@H]([C@H]3O[C@@]4([C@H](O)[C@]3(O)COC(=O)c3ccccc3)[C@@H](OC(=O)/C=C/C=C/C=C/CCC)[C@@H](C)C[C@@H]24)[C@H]1O`, the EC50 in experiment [1] is over 34 nM. Besides, the IC50 with MT4 was over 34 nM.

Consider `C=C(C)[C@@]1(O)[C@H](OC(=O)/C=C/C=C/C=C/CCC)[C@@H]2[C@@H]3O[C@]3(CO)[C@@H](O)[C@]3(O)C(=O)C(C)=C[C@H]3[C@@]2(O)[C@H](C)[C@H]1OC(=O)/C=C/c1ccc(O)c(OC)c1`, for which the EC50 in experiment [1] is over 34 nM. Moreover, the IC50 with MT4 was over 34 nM.

In the case of `C=C(C)[C@@]12O[C@@]3(/C=C/C=C/C=C/CCC)O[C@@H]1[C@@H]1[C@@H]4O[C@]4(CO)[C@@H](O)[C@]4(O)C(=O)C(C)=C[C@H]4[C@@]1(O3)[C@H](C)[C@H]2OC(=O)c1ccccc1`, the EC50 in experiment [1] was 1.9 nM. The IC50 in the experiment with MT4 is over 34 nM.

Consider `C=C(C)[C@@]12O[C@@]3(c4ccccc4)O[C@@H]1[C@@H]1[C@@H]4O[C@]4(CO)[C@@H](O)[C@]4(O)C(=O)C(C)=C[C@H]4[C@@]1(O3)[C@H](C)[C@H]2OC(=O)/C=C/C=C/C=C/CCC`, for which the EC50 in experiment [1] came out at 2.3 nM. For the same compound, the half-maximal inhibitory concentration (IC50) in the experiment with MT4 is over 34 nM.

In the case of `C=C(C)[C@@]12O[C@@]3(/C=C/C=C/C=C/CCC)O[C@@H]1[C@@H]1[C@@H]4O[C@]4(CO)[C@@H](O)[C@]4(O)C(=O)C(C)=C[C@H]4[C@@]1(O3)[C@H](C)[C@H]2OC(=O)/C=C/c1ccc(O)c(OC)c1`, the EC50 in experiment [1] is 4.5 nM. For the same compound, the IC50 in the experiment on MT4 is over 34 nM.

As for `C=C(C)[C@@]1(O)[C@H](OC(=O)/C=C/C=C/CCCCC)[C@@H]2[C@@H]3O[C@]3(CO)[C@@H](O)[C@]3(O)C(=O)C(C)=C[C@H]3[C@@]2(O)[C@H](C)[C@H]1OC(=O)/C=C/c1ccccc1`, the EC50 in experiment [1] is over 34 nM. For the same compound, the IC50 in the experiment on MT4 was over 34 nM.

As for `C=C(C)[C@@]12O[C@@]3(/C=C/C=C/C=C/CCC)O[C@@H]1[C@@H]1[C@@H]4O[C@]4(CO)[C@@H](O)[C@]4(O)C(=O)C(C)=C[C@H]4[C@@]1(O3)[C@H](C)[C@H]2OC(=O)/C=C/c1ccccc1`, the EC50 in experiment [1] came to 3.7 nM. The IC50 in the experiment on MT4 is over 34 nM.

As for `C=C(C)[C@@]12O[C@@]3(/C=C/C=C/C=C/CCC)O[C@@H]1[C@@H]1[C@@H]4O[C@]4(CO)[C@@H](O)[C@]4(O)C(=O)C(C)=C[C@H]4[C@@]1(O3)[C@H](C)[C@H]2OC(=O)/C=C/c1ccc(O)cc1`, in experiment [1], the EC50 turned out to be 1.6 nM. In the experiment on MT4, the IC50 is over 34 nM.

`C=C(C)[C@@]12O[C@@]3(/C=C/C=C/CCCCC)O[C@@H]1[C@@H]1[C@@H]4O[C@]4(CO)[C@@H](O)[C@]4(O)C(=O)C(C)=C[C@H]4[C@@]1(O3)[C@H](C)[C@H]2OC(=O)/C=C/c1ccc(O)c(OC)c1`: the EC50 in experiment [1] is 1.5 nM. For the same compound, the IC50 in the experiment on MT4 was over 34 nM.

As to `C=C(C)[C@@]12O[C@@]3(/C=C/C=C/CCCCC)O[C@@H]1[C@@H]1[C@@H]4O[C@]4(CO)[C@@H](O)[C@]4(O)C(=O)C(C)=C[C@H]4[C@@]1(O3)[C@H](C)[C@H]2OC(=O)/C=C/c1ccccc1`, the EC50 in experiment [1] turned out to be 2.2 nM. Besides, the concentration for half-maximal inhibition (IC50) with MT4 was over 34 nM.

Turning to `C=C(C)[C@@]12O[C@@]3(/C=C/C=C/CCCCC)O[C@@H]1[C@@H]1[C@@H]4O[C@]4(CO)[C@@H](O)[C@]4(O)C(=O)C(C)=C[C@H]4[C@@]1(O3)[C@H](C)[C@H]2OC(=O)/C=C/c1ccc(O)cc1`, the EC50 in experiment [1] amounted to 7.7 nM. Besides, the IC50 in the experiment with MT4 is over 34 nM.

Turning to `C=C(C)[C@@]12O[C@@]3(/C=C/C=C/CCCCC)O[C@@H]1[C@@H]1[C@@H]4O[C@]4(CO)[C@@H](O)[C@]4(O)C(=O)C(C)=C[C@H]4[C@@]1(O3)[C@H](C)[C@H]2OC(=O)c1ccccc1` [GNIDILATIDIN], in experiment [1], the EC50 was found to be 1.9 nM. The concentration for half-maximal inhibition (IC50) with MT4 is over 34 nM.
